Results published in ChEMBL document CHEMBL1143065, “Discovery and characterization of 4'-(2-furyl)-N-pyridin-3-yl-4,5'-bipyrimidin-2'-amine (LAS38096), a potent, selective, and efficacious A2B adenosine receptor antagonist” (J Med Chem, 2007).
pIC50, pKi: −log10 of the molar value.

What was measured:
Adenosine receptor A2b [1] = target: T1, Adenosine receptor A2b (Homo sapiens, UniProt P29275); experiment: Displacement of [3H]DPCPX from human A2B receptor expressed in HEK293 cells; type: cell-based
T1 sequence (P29275 whole entry): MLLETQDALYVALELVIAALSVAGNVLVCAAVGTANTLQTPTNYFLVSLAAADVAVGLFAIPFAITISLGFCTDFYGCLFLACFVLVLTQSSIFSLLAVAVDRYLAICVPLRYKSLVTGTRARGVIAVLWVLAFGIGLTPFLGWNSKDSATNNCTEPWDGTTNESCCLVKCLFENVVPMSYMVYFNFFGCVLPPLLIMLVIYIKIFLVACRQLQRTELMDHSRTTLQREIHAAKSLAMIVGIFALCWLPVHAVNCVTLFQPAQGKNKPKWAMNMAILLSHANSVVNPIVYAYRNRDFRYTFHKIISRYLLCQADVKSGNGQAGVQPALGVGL

Adenosine receptor A2a [2] = target: T2, Adenosine receptor A2a (Homo sapiens, UniProt P29274); experiment: Displacement of [3H]ZM-241385 from human A2A receptor expressed in HeLa cells; type: cell-based
T2 sequence (P29274 whole entry): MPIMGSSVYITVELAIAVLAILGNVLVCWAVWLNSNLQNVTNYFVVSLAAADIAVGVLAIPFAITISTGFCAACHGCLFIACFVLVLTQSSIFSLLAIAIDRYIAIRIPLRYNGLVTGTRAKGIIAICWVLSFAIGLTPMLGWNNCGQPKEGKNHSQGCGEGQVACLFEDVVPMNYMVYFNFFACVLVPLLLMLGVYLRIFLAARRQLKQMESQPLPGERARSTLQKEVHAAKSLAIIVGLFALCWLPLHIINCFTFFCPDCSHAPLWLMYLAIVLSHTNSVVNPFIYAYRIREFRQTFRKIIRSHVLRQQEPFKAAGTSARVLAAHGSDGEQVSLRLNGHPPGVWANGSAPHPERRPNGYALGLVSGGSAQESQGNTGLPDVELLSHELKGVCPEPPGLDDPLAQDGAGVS

Adenosine receptor A2a [3] = target: T2, Adenosine receptor A2a; experiment: Displacement of [3H]ZM-241385 from human A2A receptor expressed in HeLa cells at 2500 nM; type: cell-based
Adenosine receptor A1 = target: T3, Adenosine receptor A1 (Homo sapiens, UniProt P30542); experiment: Displacement of [3H]DPCPX from human A1 receptor expressed in CHO cells; type: cell-based
T3 sequence (P30542 whole entry): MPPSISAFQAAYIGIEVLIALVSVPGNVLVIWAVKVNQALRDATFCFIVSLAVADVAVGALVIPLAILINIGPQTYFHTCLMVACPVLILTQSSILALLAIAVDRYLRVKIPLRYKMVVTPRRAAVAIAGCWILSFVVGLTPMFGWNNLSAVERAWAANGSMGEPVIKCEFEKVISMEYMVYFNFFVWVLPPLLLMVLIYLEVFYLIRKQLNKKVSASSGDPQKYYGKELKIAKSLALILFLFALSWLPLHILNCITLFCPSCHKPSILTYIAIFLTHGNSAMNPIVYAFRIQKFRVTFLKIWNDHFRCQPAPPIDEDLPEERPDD

[4] = target: T4, Adenosine receptor A1 (Homo sapiens) (UniProt P30542); experiment: Displacement of [3H]DPCPX from human A1 receptor expressed in CHO cells at 10000 nM; type: cell-based
T4 sequence (whole entry): T3 sequence (P30542 whole entry)

Adenosine receptor A3 = target: T5, Adenosine receptor A3 (Homo sapiens, UniProt P0DMS8); experiment: Displacement of […] from human A3 receptor expressed in HeLa cells; type: cell-based
T5 sequence (P0DMS8 whole entry): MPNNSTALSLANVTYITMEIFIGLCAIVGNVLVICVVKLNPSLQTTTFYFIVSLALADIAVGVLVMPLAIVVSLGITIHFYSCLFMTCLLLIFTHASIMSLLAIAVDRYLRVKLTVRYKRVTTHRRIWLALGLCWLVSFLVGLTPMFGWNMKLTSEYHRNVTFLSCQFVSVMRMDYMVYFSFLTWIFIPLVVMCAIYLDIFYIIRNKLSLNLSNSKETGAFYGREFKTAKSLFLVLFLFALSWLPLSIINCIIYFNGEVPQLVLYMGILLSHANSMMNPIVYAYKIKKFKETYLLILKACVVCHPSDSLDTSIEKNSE

[5] = target: T6, Adenosine receptor A3 (Homo sapiens) (UniProt P0DMS8); experiment: Displacement of […] from human A3 receptor expressed in HeLa cells at 1000 nM; type: cell-based
T6 sequence (whole entry): T5 sequence (P0DMS8 whole entry)

[6] = target: T4, Adenosine receptor A1 (Homo sapiens); experiment: Displacement of [3H]DPCPX from human A1 receptor expressed in CHO cells at 1000 nM; type: cell-based
Adenosine receptor A2b [7] = target: T1, Adenosine receptor A2b; experiment: Activity at human A2B receptor expressed in HEK293 cells assessed as inhibition of NECA-induced intracellular cAMP levels by ELISA; type: functional, cell-based
Adenosine receptor A2b [8] = target: T7, Adenosine receptor A2b (Mus musculus, UniProt Q60614); experiment: Activity at mouse A2B receptor expressed in CHO cells assessed as inhibition of NECA-induced intracellular cAMP levels by ELISA; type: functional, cell-based
T7 sequence (Q60614 whole entry): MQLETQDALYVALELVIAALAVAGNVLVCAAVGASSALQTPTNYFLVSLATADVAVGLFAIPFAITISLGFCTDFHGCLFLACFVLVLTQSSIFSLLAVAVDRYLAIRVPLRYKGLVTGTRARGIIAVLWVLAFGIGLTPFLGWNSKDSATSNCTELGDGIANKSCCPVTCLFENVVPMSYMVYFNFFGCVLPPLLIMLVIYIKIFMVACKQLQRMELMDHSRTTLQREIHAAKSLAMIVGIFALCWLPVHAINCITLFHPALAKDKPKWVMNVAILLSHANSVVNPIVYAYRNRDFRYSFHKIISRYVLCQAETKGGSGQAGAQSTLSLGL

[9] = target: T8, Adenosine receptors; A2b & A3 (Homo sapiens, UniProt P29275+P0DMS8); experiment: Inhibition of NECA-induced IL6 production in human fibroblast after 24 hrs by ELISA; type: functional
T8 sequence (P29275 whole entry): T1 sequence (P29275 whole entry)
T8 sequence (P0DMS8 whole entry): T5 sequence (P0DMS8 whole entry)

Adenosine receptor A2b [10] = target: T7, Adenosine receptor A2b; experiment: Inhibition of NECA-induced IL6 production in Swiss mouse fibroblasts after 24 hrs by ELISA; type: functional
[11] = Cmax in Swiss mouse at 10 mg/kg, po; type: ADME, organism-based; design: dose 10 mg/kg, route oral; conditions: in vivo
[12] = Cmax in Wistar rat at 10 mg/kg, po; type: ADME, organism-based; design: dose 10 mg/kg, route oral; conditions: in vivo
[13] = Cmax in Beagle dog at 10 mg/kg, po; type: ADME, organism-based, Canis lupus familiaris; design: dose 10 mg/kg, route oral; conditions: in vivo
[14] = Tmax in Swiss mouse at 10 mg/kg, po; type: ADME, organism-based; design: dose 10 mg/kg, route oral; conditions: in vivo
[15] = Tmax in Wistar rat at 10 mg/kg, po; type: ADME, organism-based; design: dose 10 mg/kg, route oral; conditions: in vivo
[16] = Tmax in Beagle dog at 10 mg/kg, po; type: ADME, organism-based, Canis lupus familiaris; design: dose 10 mg/kg, route oral; conditions: in vivo
[17] = AUC in Swiss mouse at 10 mg/kg, po; type: ADME, organism-based; design: dose 10 mg/kg, route oral; conditions: plasma
[18] = AUC in Wistar rat at 10 mg/kg, po; type: ADME, organism-based; design: dose 10 mg/kg, route oral; conditions: plasma
[19] = AUC in Beagle dog at 10 mg/kg, po; type: ADME, organism-based, Canis lupus familiaris; design: dose 10 mg/kg, route oral; conditions: plasma
[20] = Half life in Wistar rat at 1 mg/kg, iv; type: ADME, organism-based; design: dose 1 mg/kg, route intravenous; conditions: in vivo
[21] = Half life in Beagle dog at 1 mg/kg, iv; type: ADME, organism-based, Canis lupus familiaris; design: dose 1 mg/kg, route intravenous; conditions: in vivo
[22] = Mean residence time in Wistar rat at 10 mg/kg, po; type: ADME, organism-based; design: dose 10 mg/kg, route oral; conditions: in vivo
[23] = Mean residence time in Beagle dog at 10 mg/kg, po; type: ADME, organism-based, Canis lupus familiaris; design: dose 10 mg/kg, route oral; conditions: in vivo
[24] = Mean residence time in Wistar rat at 1 mg/kg, iv; type: ADME, organism-based; design: dose 1 mg/kg, route intravenous; conditions: in vivo
[25] = Mean residence time in Beagle dog at 1 mg/kg, iv; type: ADME, organism-based, Canis lupus familiaris; design: dose 1 mg/kg, route intravenous; conditions: in vivo
Rattus norvegicus = experiment: Clearance in Wistar rat at 1 mg/kg, iv; type: ADME, organism-based; design: dose 1 mg/kg, route intravenous; conditions: in vivo
[26] = Clearance in Beagle dog at 1 mg/kg, iv; type: ADME, organism-based, Canis lupus familiaris; design: dose 1 mg/kg, route intravenous; conditions: in vivo
[27] = Volume of distribution at steady state in Wistar rat at 1 mg/kg, iv; type: ADME, organism-based; design: dose 1 mg/kg, route intravenous; conditions: in vivo, read-out: Vdss
[28] = Volume of distribution at steady state in Beagle dog at 1 mg/kg, iv; type: ADME, organism-based, Canis lupus familiaris; design: dose 1 mg/kg, route intravenous; conditions: in vivo, read-out: Vdss
[29] = Bioavailability in Wistar rat at 10 mg/kg, po; type: ADME, organism-based; conditions: in vivo
[30] = Bioavailability in Beagle dog at 10 mg/kg, po; type: ADME, organism-based, Canis lupus familiaris; conditions: in vivo
[31] = target: Adenosine receptor A3 (Mus musculus) (UniProt Q61618); conditions: CHO, 10 uM
Chain of Adenosine receptor A3 (Mus musculus) (Q61618 whole entry, looked up): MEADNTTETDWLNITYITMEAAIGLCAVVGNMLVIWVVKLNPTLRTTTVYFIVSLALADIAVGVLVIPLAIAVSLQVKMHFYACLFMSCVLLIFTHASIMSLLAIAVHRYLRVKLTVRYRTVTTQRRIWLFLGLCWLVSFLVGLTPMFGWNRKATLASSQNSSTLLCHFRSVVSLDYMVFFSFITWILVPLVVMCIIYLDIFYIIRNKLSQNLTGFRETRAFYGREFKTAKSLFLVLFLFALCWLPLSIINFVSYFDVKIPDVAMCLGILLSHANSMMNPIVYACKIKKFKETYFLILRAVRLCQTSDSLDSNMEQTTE
Description: Activity at mouse A3 receptor expressed in CHO cells assessed as inhibition of NECA-induced intracellular cAMP levels at 10 uM by ELISA

For `Cn1cc(Nc2ncc(-c3ccncn3)c(-c3ccco3)n2)ccc1=O`, the pKi (Adenosine receptor A2b [1]) was 7.55, the pKi (Adenosine receptor A2a [2]) was < 5.60 and the inhibition (Adenosine receptor A2a [3]) was 20%. The pKi (Adenosine receptor A1) was < 5.00, the inhibition [4] was 17% and the pKi (Adenosine receptor A3) was < 6.00. It also gave an inhibition [5] of 28%.
For `c1cncc(Nc2ncc(-c3ccncn3)c(-c3ccco3)n2)c1`, the pKi (Adenosine receptor A2b [1]) was 7.77, the pKi (Adenosine receptor A2a [2]) was < 5.60 and the inhibition (Adenosine receptor A2a [3]) was 40%. The pKi (Adenosine receptor A1) was < 6.00, the inhibition [6] was 14% and the pKi (Adenosine receptor A3) was < 6.00. It also gave an inhibition [5] of 36%, a pIC50 (Adenosine receptor A2b [7]) of 6.49 and a pIC50 (Adenosine receptor A2b [8]) of 6.46. The IC50 [9] was 340 nM, the pIC50 (Adenosine receptor A2b [10]) was 6.19 and the Cmax [11] was 13 µM. It also gave a Cmax [12] of 11 µM, a Cmax [13] of 6 µM and a Tmax [14] of 18 min. For the same molecule, the Tmax [15] was 18 min, the Tmax [16] was 78 min and the AUC [17] was 4 µM·h. For the same molecule, the AUC [18] was 16 µM·h, the AUC [19] was 15 µM·h and the half-life [20] was 12 min. It also gave a half-life [21] of 48 min, an MRT [22] of 84 min and an MRT [23] of 108 min. The MRT [24] was 18 min, the MRT [25] was 42 min and the clearance (Rattus norvegicus) was 25 mL/min/kg. For the same molecule, the clearance [26] was 28 mL/min/kg, the Vd [27] was 0.5 L/kg and the Vd [28] was 1.1 L/kg. For the same molecule, the bioavailability [29] was 75%, the bioavailability [30] was 81% and the inhibition [31] was 5%.
For `c1coc(-c2nc(Nc3cncnc3)ncc2-c2ccncn2)c1`, the pKi (Adenosine receptor A2b [1]) was 7.62, the pKi (Adenosine receptor A2a [2]) was < 5.60 and the inhibition (Adenosine receptor A2a [3]) was 29%. The pIC50 (Adenosine receptor A1) was 7.35, the pKi (Adenosine receptor A1) was < 5.00 and the pKi (Adenosine receptor A3) was < 6.00. For the same molecule, the inhibition [5] was 42%.
For `O=c1ccc(Nc2ncc(-c3ccncn3)c(-c3ccco3)n2)cn1CC1CC1`, the pKi (Adenosine receptor A2b [1]) was 6.92, the pKi (Adenosine receptor A2a [2]) was < 5.60 and the inhibition (Adenosine receptor A2a [3]) was 38.5%. For the same molecule, the pKi (Adenosine receptor A1) was < 5.00, the inhibition [4] was 28% and the pKi (Adenosine receptor A3) was < 6.00. The inhibition [5] was 29%.
With `O=c1ccc(Nc2ncc(-c3ccncn3)c(-c3ccco3)n2)c[nH]1` the pKi (Adenosine receptor A2b [1]) was 7.80, the pKi (Adenosine receptor A2a [2]) was < 5.60 and the inhibition (Adenosine receptor A2a [3]) was 25%. The pKi (Adenosine receptor A1) was < 5.00, the inhibition [4] was 31% and the pKi (Adenosine receptor A3) was < 6.00. It also gave an inhibition [5] of 15%.
For `COc1ncc(Nc2ncc(-c3ccncn3)c(-c3ccco3)n2)cn1`, the pKi (Adenosine receptor A2b [1]) was 7.41, the pKi (Adenosine receptor A2a [2]) was < 5.60 and the inhibition (Adenosine receptor A2a [3]) was 25%. The pKi (Adenosine receptor A1) was < 5.00, the inhibition [4] was 45% and the pKi (Adenosine receptor A3) was < 6.00. The inhibition [5] was 32%.
In the case of `c1coc(-c2nc(Nc3cnccn3)ncc2-c2ccncn2)c1`, the pKi (Adenosine receptor A2b [1]) was 6.94, the pKi (Adenosine receptor A2a [2]) was < 5.60 and the inhibition (Adenosine receptor A2a [3]) was 21%. The pKi (Adenosine receptor A1) was < 5.00, the inhibition [4] was 30% and the pKi (Adenosine receptor A3) was < 6.00. It also gave an inhibition [5] of 18%.
With `N#Cc1cncc(Nc2ncc(-c3ccncn3)c(-c3ccco3)n2)c1` the pKi (Adenosine receptor A2b [1]) was 7.16, the pKi (Adenosine receptor A2a [2]) was < 5.60 and the inhibition (Adenosine receptor A2a [3]) was 37%. For the same molecule, the pKi (Adenosine receptor A1) was < 5.00, the inhibition [4] was 22% and the pKi (Adenosine receptor A3) was < 6.00. It also gave an inhibition [5] of 24%.
In the case of `[O-][n+]1cccc(Nc2ncc(-c3ccncn3)c(-c3ccco3)n2)c1`, the pKi (Adenosine receptor A2b [1]) was 7.47, the pKi (Adenosine receptor A2a [2]) was < 5.60 and the inhibition (Adenosine receptor A2a [3]) was 24%. For the same molecule, the pKi (Adenosine receptor A1) was < 5.00, the inhibition [4] was 38% and the pKi (Adenosine receptor A3) was < 6.00. For the same molecule, the inhibition [5] was 35%.
With `COc1ccc(Nc2ncc(-c3ccncn3)c(-c3ccco3)n2)cn1` the pKi (Adenosine receptor A2b [1]) was 6.94, the pKi (Adenosine receptor A2a [2]) was < 5.60 and the inhibition (Adenosine receptor A2a [3]) was 21%. The pKi (Adenosine receptor A1) was < 5.00, the inhibition [4] was 25% and the pKi (Adenosine receptor A3) was < 6.00. For the same molecule, the inhibition [5] was 29%.
